Assay results reported in paper PMC3957892, “Antibiotic Streptolydigin Requires Noncatalytic Mg^2+ for Binding to RNA Polymerase” (Antimicrobial Agents and Chemotherapy, 2014).

Experiments:
[1] = target: T1, WT Thermus aquaticus core RNAP (Thermus aquaticus, UniProt Q9KWU6+Q9KWU7); test: GTP (NMP) incorporation in assembled elongation complex EC1, WT RNAP; type: biochemical; details: for Ki: 1 mM GTP incorporation, 40°C
T1 construct: made in house
Procedure: (§1) Recombinant wild-type (WT) and mutant Thermus aquaticus core RNAPs were constructed and purified as described previously ([25]).
(§2) Elongation complexes (ECs) were assembled with WT and mutant (H936A/R933A and M932A [E. coli numbering]) RNAPs as described previously ([18]) and placed in transcription buffer containing 40 mM KCl and 20 mM Tris (pH 7.9). Prior to complex assembly, RNA was ^32P labeled at the 5′ end by using [γ-^32P]ATP (PerkinElmer). All reactions were carried out at 40°C. Stl (Sigma) with or without 10 mM MgCl2 was added before the reactions for 10 min at 40°C. Elongation reactions were initiated by addition of 1 mM GTP or 1 mM GTP with 10 mM MgCl2; endonucleolytic cleavage reactions were initiated by the addition of 10 mM MgCl2. Reactions were stopped by the addition of formamide-containing buffer, and products were analyzed as described previously ([18]). Fast kinetics experiments were performed as described previously ([18]). The kinetics data that were described well by a single exponent were fitted into a single-exponent equation using the nonlinear regression procedure in SigmaPlot software. Plots were normalized to the predicted maximum, which was taken as 100. The rates were then fitted in a hyperbolic equation to determine the Ki[Stl]. When the kinetics was described by a double exponent, the predicted maxima of the fast fractions were used for the fit to determine the Stl concentration that inhibited half of the complexes (equivalent of the Ki).
In order to investigate the details of the effects of Stl on RNAP active center functioning, we used artificially assembled elongation complexes (ECs). These complexes are assembled with Thermus aquaticus RNAP, fully complementary synthetic template and nontemplate DNA oligonucleotides, and an RNA oligonucleotide (Fig. 1C and D). […] We analyzed the kinetics of nucleoside monophosphate (NMP) addition in the presence of different concentrations of Stl in the elongation complex EC1, containing a 13-nucleotide-long RNA (Fig. 1C). […]

[2] = target: T1, WT Thermus aquaticus core RNAP; test: Intrinsic (endonucleolytic) cleavage / phosphodiester bond hydrolysis in elongation complex EC2, WT RNAP; type: biochemical
Procedure: as §1
as §2, with “When the kinetics was described by a double exponent, the predicted maxima of the fast fractions were used for the fit to determine the Stl concentration that inhibited half of the complexes (equivalent of the Ki).” left out

[3] = target: T2, Thermus aquaticus RNAP β′H936A/R933A mutant (Thermus aquaticus, UniProt Q9KWU6+Q9KWU7, H1242A/R1239A); test: GTP incorporation in elongation complex, H936A/R933A mutant RNAP; type: biochemical
T2 construct: made in house
Procedure: as §1
as §2, with “When the kinetics was described by a double exponent, the predicted maxima of the fast fractions were used for the fit to determine the Stl concentration that inhibited half of the complexes (equivalent of the Ki).” left out

[4] = target: T3, Thermus aquaticus RNAP β′M932A mutant (Thermus aquaticus, UniProt Q9KWU6+Q9KWU7, M1238A); test: GTP incorporation in elongation complex, M932A mutant RNAP; type: biochemical
T3 construct: made in house
Procedure: as §1
as §2, with “When the kinetics was described by a double exponent, the predicted maxima of the fast fractions were used for the fit to determine the Stl concentration that inhibited half of the complexes (equivalent of the Ki).” left out

[5] = Mg^2+ binding to Stl, titration followed by UV absorption spectrum; details: deduced from titration experiment (Fig. 2A), 20 mM HEPES buffer pH 8.0; read-out: Apparent affinity of Stl for Mg^2+
Procedure: The spectra of Stl were recorded using a UV160U UV-visible (UV-Vis) recording spectrophotometer (Shimadzu Scientific Instruments, Inc.) in a fused silica measuring cell in the presence of the indicated concentrations of the MgCl2 in 20 mM HEPES buffer (pH 8.0).
We attempted to directly visualize if Stl can bind Mg^2+. Stl has a distinct UV absorption spectrum.

eukaryotic RNAPs = test system: eukaryotic RNAPs; parameters: method as in PMID 11124018, PMID 11297923, PMID 11839495; details: cited from earlier work
RNAP β′D792G = test system: RNAP β′D792G; parameters: method as in PMID 7592585; details: cited from earlier work
E. coli RNAP β′N792D = test system: E. coli RNAP β′N792D; parameters: method as in PMID 16167380; details: cited from earlier work
RNAP = test system: RNAP; parameters: method as in PMID 791108; details: Stl analog lacking the acetamide group; cited from earlier work

Row | Molecule | Ki ([1]; Ki[Stl] (half-inhibitory concentration determined from the proportion of the fast fraction), Stl preincubated −Mg^2+) | Ki ([1]; Ki[Stl], Stl preincubated +Mg^2+ (10 mM MgCl2)) | Half-inhibitory concentration of Stl when preincubated with Mg^2+, times lower than when Mg^2+ was added together with NTP ([1]; NMP incorporation) | Ki [2] | Concentration of Stl required to inhibit half of the ECs during hydrolysis, times lower than during NTP addition ([2]; WT RNAP, hydrolysis vs NTP addition, −Mg^2+ preincubation) | Ki [3] | Half-inhibitory concentration of Stl for NMP incorporation, times lower than that for WT RNAP ([3]; β′H936A/R933A RNAP vs WT RNAP) | Ki [4] | Half-inhibitory concentration of Stl for NMP incorporation, times lower than that for WT RNAP ([4]; β′M932A RNAP vs WT RNAP) | Kd [5] | Inhibition of eukaryotic RNAPs (eukaryotic RNAPs) | Effect of mutation β′D792G on sensitivity to Stl (RNAP β′D792G) | Effect of β′N792D substitution in E. coli RNAP on sensitivity to Stl (E. coli RNAP β′N792D) | Inhibition of RNAP relative to Stl (RNAP)
1 | CNC(=O)[C@@H](C)[C@H]1C(=O)/C(=C(O)/C=C/C(C)=C/[C@@H](C)[C@H]2O[C@@]3(C)O[C@H](C=C[C@@]34CO4)[C@@H]2C)C(=O)N1[C@@H]1CC[C@H](O)[C@H](C)O1 [Stl, streptolydigin] | 13.9 µM | 0.882 µM | ~15 times | 1.83 µM | ~8 times | 0.816 µM | 15 to 20 times | 0.649 µM | 15 to 20 times | ~1000 µM | does not inhibit | strong resistance | significant enhancement of the enzyme sensitivity | 
2 | tirandamycin |  |  |  |  |  |  |  |  |  |  |  |  |  | significantly weaker inhibitor than Stl
